# Starred links: 1 amine or outer side, 2 acyl side, 3 side chain; linkers in the order of their positions; H or OH if unused. Positions of bridges follow the written chain, without caps; N, C: chain ends. Non-standard residues stand in square brackets, D forms with d. Residues, ends and D or L forms follow the SMILES beside them. Chains are numbered I, II in the order given. Actinocin(9to1) = Cc1c2oc3c(C)ccc(C(=O)[*:1])c3nc-2c(C(=O)[*:2])c(N)c1=O; NMeV = CN[C@H](C(=O)O)C(C)C; Sar = CNCC(=O)O
# B1: VP16 of HSV-2: VP16 protein of HSV-2 (purified) (protein)
# chain: MDLLVDDLFADADGVSPPPPRPAGGPKNTPAAPPLYATGRLSQAQLMPSPPMPVPPAALFNRLLDDLGFSAGPALCTMLDTWNEDLFSGFPTNADMYRECKFLSTLPSDVIDWGDAHVPERSPIDIRAHGDVAFPTLPATRDELPSYYEAMAQFFRGELRAREESYRTVLANFCSALYRYLRASVRQLHRQAHMRGRNRDLREMLRTTIADRYYRETARLARVLFLHLYLFLSREILWAAYAEQMMRPDLFDGLCCDLESWRQLACLFQPLMFINGSLTVRGVPVEARRLRELNHIREHLNLPLVRSAAAEEPGAPLTTPPVLQGNQARSSGYFMLLIRAKLDSYSSVATSEGESVMREHAYSRGRTRNNYGSTIEGLLDLPDDDDAPAEAGLVAPRMSFLSAGQRPRRLSTTAPITDVSLGDELRLDGEEVDMTPADALDDFDLEMLGDVESPSPGMTHDPVSYGALDVDDFEFEQMFTDAMGIDDFGG
# Tests used:
# [1] = test system: CD8 CTL clone 1874.1991.22; test: 51Cr release CTL assay, CD8 clone 1874.1991.22; format: cell-based, human; conditions: autologous targets infected with wild-type HSV-2 in the presence of 5 μg/ml actinomycin D, E:T 20:1
# [2] = test system: CD8 CTL clone 5101.1999.23; test: 51Cr release CTL assay, CD8 clone 5101.1999.23; format: cell-based, human; conditions: autologous targets infected with wild-type HSV-2 in the presence of 5 μg/ml actinomycin D, E:T 20:1
# [3] = test system: CD8 CTL clone 5491.2000.48; test: 51Cr release CTL assay, CD8 clone 5491.2000.48; format: cell-based, human; conditions: autologous targets infected with wild-type HSV-2 in the presence of 5 μg/ml actinomycin D, E:T 20:1
# CD4+ T cell clone = test: Reactivity with a CD4+ T cell clone (HLA DRBI*1501); format: cell-based, human; conditions: in association with HLA class II molecule DRBI*1501
# Source text: This epitope is recognized in association with the HLA class II molecule DRBI*1501, which is fairly prevalent in most human populations.
# TCC BM.17 [4] = test: T-cell proliferation, TCC BM.17; format: cell-based, human; conditions: VP16 1-492 at 1 μg/ml, β-gal-VP16 180-492 at 1:1,000, peptides at 1 μM
# Procedure: (§1) Triplicate proliferation assay wells contained 10^4 cloned T-cells, 10^5 irradiated (3300 rad) PBMC or 2.5×10^4 irradiated (8000 rad) EBV-LCL as antigen presenting cells (APC), and antigen in 200 μl T-cell media (D. M. Koelle et al., 1997, Human. Immunol., 53:195-205) in 96-well U-bottom plates. When heat-killed bacteria were used as antigen, the equivalent of 10^5 cfu/well (prior to inactivation) was added and gentamicin (20 μg/ml) was included. After 72 hours, 1 μCi/well ^[3]H thymidine was added for 18 hours, cells were harvested, and incorporation of thymidine evaluated by liquid scintillation counting. Standard deviations were less than 10% of the mean values. Results are reported as mean cpm or as delta cpm=mean cpm for experimental antigen minus mean cpm for control antigen. Control antigen was mock-infected cell lysate for whole viral antigens and pUEX2-derived β-galactosidase for recombinant protein preparations. […]
# (§2) Three epitopes within VP16, all HSV-2 type-specific were previously identified (K. R. Jerome et al., 1998, J. Virol., 72:436-441), and proliferative responses to full-length VP16 in bulk cultures of genital HSV-2 lesion-infiltrating lymphocytes from four of seven (57%) patients were detected (D. M. Koelle et al., 1998, J. Clin. Invest., 101:1500-09). […]
# TCC SB.17 [5] = test: T-cell proliferation, TCC SB.17; format: cell-based, human; conditions: VP16 1-492 at 1 μg/ml, β-gal-VP16 180-492 at 1:1,000, peptides at 1 μM
# Procedure: as §1, §2
# TCC BM.17 [6] = test: Cytolysis assay (4-hour 51Cr release), CD4 TCC BM.17; format: cell-based, human; conditions: autologous EBV-LCL targets, HSV-2 infected or 1 μM peptide, E:T 20:1
# Procedure: (§3) Cytolysis assays were performed in triplicate using 4-hour [^51]Cr release as described (D. M. Koelle et al., 1993, J. Clin. Invest., 91:961-968). […] W. Kwok et al., 1996,J. Exp. Med., 183:1253-1258). The effector to target ratio was 20:1. Spontaneous release was less than 28%.
# TCC SB.17 [7] = test: Cytolysis assay (4-hour 51Cr release), CD4 TCC SB.17; format: cell-based, human; conditions: autologous EBV-LCL targets, HSV-2 infected or 1 μM peptide, E:T 20:1
# Procedure: as §3
# B1 cell line = test: Proliferation of short-term HSV-specific B1 cell lines from seven HSV-2 infected adults; format: cell-based, human; conditions: seven HSV-2 infected immunocompetent adults; positive = stimulation index >= 4.0
# Procedure: For each subject, PBMC were isolated and plated at 2×10^6 cells/well in 2 mls of T-cell medium in 24-well plates and stimulated in vitro with a 1:500 dilution of UV-inactivated HSV-2 strain 333 for five days. At that time, 40 units/ml recombinant human IL-2 was added for an additional five to six days, giving rise to a short-term, HSV-specific cell line termed a B1 cell line.
# Reactivity to individual HSV-2 proteins was assessed as follows. Proliferation assays were set up on 96-well round bottom microtiter plates, and each condition was performed in triplicate. To each well, 1×10^5 autologous irradiated (3300 rad gamma) PBMC were added as antigen presenting cells. To each well, 1×10^4 B1 cells were added. The following control substances were added: media, UV-treated mock virus preparation diluted 1:500, UV-treated HSV-2 strain 333 diluted 1:500, glycoproteins B or D or VP16 protein of HSV-2 (purified) at 4 micrograms per ml final concentration. The response to UV-treated HSV-2 was expected to be positive and served as a positive control for the viability and overall specificity of the cells. […]
# Positive responses were scored if the stimulation index (mean cpm ^3H thymidine incorporation for test antigen/mean cpm ^3H thymidine incorporation for relevant control antigen) was greater than or equal to 4.0. […]
# [8] = test system: genital HSV-2 lesion-infiltrating lymphocytes; conditions: four of seven patients; Koelle et al., 1998; cited from earlier work
molecule,measurement,setting,value
"Cc1c2oc3c(C)ccc(C(=O)N[C@@H]4C(=O)N[C@H](C(C)C)C(=O)N5CCC[C@H]5C(=O)N(C)CC(=O)N(C)[C@@H](C(C)C)C(=O)O[C@@H]4C)c3nc-2c(C(=O)N[C@@H]2C(=O)N[C@H](C(C)C)C(=O)N3CCC[C@H]3C(=O)N(C)CC(=O)N(C)[C@@H](C(C)C)C(=O)O[C@@H]2C)c(N)c1=O [actinomycin D] (I: T[dV]P[Sar][NMeV] / II: T[dV]P[Sar][NMeV]; ester I:1-I:C, II:1-II:C; linker I:N-II:N via Actinocin(9to1))",percent specific release,[1],45.1%
same,percent specific release,[2],35.8%
same,percent specific release,[3],49.2%
RLRELNHIREHLNLPLVRSA [VP16 288-307],reactivity with a CD4+ T cell clone,CD4+ T cell clone,reactivity
"VP16 437-449: HSV-2 VP16 (UL48) peptide, amino acids 437-449 (ADALDDFDLEMLG; UniProt P68336 437-449, looked up, fragment)",delta cpm [3H] thymidine incorporation compared to media,TCC BM.17 [4],"79,723 cpm"
same,delta cpm [3H] thymidine incorporation compared to media,TCC SB.17 [5],"36,442 cpm"
same,percent specific release,TCC BM.17 [6],28.5%
same,percent specific release,TCC SB.17 [7],60.6%
B1,% (subjects with positive response),B1 cell line,0%
same,n (subjects with positive response),B1 cell line,0
same,patients with proliferative responses in bulk cultures of lesion-infiltrating lymphocytes,[8],57%

# — patent publication US6814969B2, “Immunologically significant herpes simplex virus antigens and methods for using same” (University of Washington, priority 2001, dated 2004)
